Assay results taken from PubChem BioAssay AID2060884 (Molecular Pharmacology Branch, DTP, NCI, 2025).

System: NCI-H929 complex spheroids, viability % test/control
Assay: Anticancer human tumor NCI-H929 cell line growth inhibition [RAS];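 also: compound exposure lasted seven days before viability was read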;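 as to viability, T/C: 100% = DMSO vehicle control viability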
Conditions: for IC50: curve of first compound; for viability, T/C: stronger effect = lower value
Summary of the method: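 Multi-cell-type spheroids: tumor cells plus HUVEC endothelial cells and mesenchymal stem cells. RAS-pathway inhibitors were combined with targeted agents, each dosed in half-log steps down from clinical Cmax, or from 10 microM when Cmax was unknown.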

[1] = second compound 0.00316 µM, first compound 0.00316 µM
[2] = second compound 0.00316 µM, first compound 0.01 µM
[3] = second compound 0.00316 µM, first compound 0.0316 µM
[4] = second compound 0.00316 µM, first compound 0.1 µM
[5] = second compound 0.00316 µM, first compound 0.316 µM
[6] = second compound 0.00316 µM, first compound 1 µM
[7] = second compound 0.01 µM, first compound 0.00316 µM
[8] = second compound 0.01 µM, first compound 0.01 µM
[9] = second compound 0.01 µM, first compound 0.0316 µM
[10] = second compound 0.01 µM, first compound 0.1 µM
[11] = second compound 0.01 µM, first compound 0.316 µM
[12] = second compound 0.01 µM, first compound 1 µM
[13] = second compound 0.0316 µM, first compound 0.00316 µM
[14] = second compound 0.0316 µM, first compound 0.01 µM
[15] = second compound 0.0316 µM, first compound 0.0316 µM
[16] = second compound 0.0316 µM, first compound 0.1 µM
[17] = second compound 0.0316 µM, first compound 0.316 µM
[18] = second compound 0.0316 µM, first compound 1 µM
[19] = second compound 0.1 µM, first compound 0.00316 µM
[20] = second compound 0.1 µM, first compound 0.01 µM
[21] = second compound 0.1 µM, first compound 0.0316 µM
[22] = second compound 0.1 µM, first compound 0.1 µM
[23] = second compound 0.1 µM, first compound 0.316 µM
[24] = second compound 0.1 µM, first compound 1 µM
[25] = second compound 0.316 µM, first compound 0.00316 µM
[26] = second compound 0.316 µM, first compound 0.01 µM
[27] = second compound 0.316 µM, first compound 0.0316 µM
[28] = second compound 0.316 µM, first compound 0.1 µM
[29] = second compound 0.316 µM, first compound 0.316 µM
[30] = second compound 0.316 µM, first compound 1 µM
[31] = second compound 1 µM, first compound 0.00316 µM
[32] = second compound 1 µM, first compound 0.01 µM
[33] = second compound 1 µM, first compound 0.0316 µM
[34] = second compound 1 µM, first compound 0.1 µM
[35] = second compound 1 µM, first compound 0.316 µM
[36] = second compound 1 µM, first compound 1 µM

Compound: C=CC(=O)Nc1cc(Nc2nccc(-c3cn(C)c4ccccc34)n2)c(OC)cc1N(C)CCN(C)C + C=CC(=O)N1CCN(c2nc(OCC3CCCN3C)nc3c(F)c(-c4nc(N)cc(C)c4C(F)(F)F)c(Cl)cc23)C(C)C1
- IC50 (second compound 0.00316 µM): > 1000 nM
- IC50 (second compound 0.01 µM): > 1000 nM
- IC50 (second compound 0.0316 µM): > 1000 nM
- IC50 (second compound 0.1 µM): > 1000 nM
- IC50 (second compound 0.316 µM): > 1000 nM
- IC50 (second compound 1 µM): > 1000 nM
- viability, T/C [1]: 93.4%
- viability, T/C [2]: 97.7%
- viability, T/C [3]: 102%
- viability, T/C [4]: 95.2%
- viability, T/C [5]: 100%
- viability, T/C [6]: 103%
- viability, T/C [7]: 101%
- viability, T/C [8]: 100%
- viability, T/C [9]: 101%
- viability, T/C [10]: 101%
- viability, T/C [11]: 99.4%
- viability, T/C [12]: 107%
- viability, T/C [13]: 95.5%
- viability, T/C [14]: 99.8%
- viability, T/C [15]: 104%
- viability, T/C [16]: 99.3%
- viability, T/C [17]: 103%
- viability, T/C [18]: 104%
- viability, T/C [19]: 98.1%
- viability, T/C [20]: 101%
- viability, T/C [21]: 108%
- viability, T/C [22]: 99.1%
- viability, T/C [23]: 101%
- viability, T/C [24]: 107%
- viability, T/C [25]: 101%
- viability, T/C [26]: 104%
- viability, T/C [27]: 101%
- viability, T/C [28]: 99.5%
- viability, T/C [29]: 104%
- viability, T/C [30]: 105%
- viability, T/C [31]: 106%
- viability, T/C [32]: 106%
- viability, T/C [33]: 107%
- viability, T/C [34]: 105%
- viability, T/C [35]: 107%
- viability, T/C [36]: 106%

Compound: CC(Nc1ccc2c(c1)OCCn1cc(N3C(=O)OCC3C(F)F)nc1-2)C(N)=O (stereo unspecified) + C=CC(=O)N1CCN(c2nc(OCC3CCCN3C)nc3c(F)c(-c4nc(N)cc(C)c4C(F)(F)F)c(Cl)cc23)C(C)C1
- IC50 (second compound 0.00316 µM): > 10000 nM
- IC50 (second compound 0.01 µM): > 10000 nM
- IC50 (second compound 0.0316 µM): > 10000 nM
- IC50 (second compound 0.1 µM): > 10000 nM
- IC50 (second compound 0.316 µM): > 10000 nM
- IC50 (second compound 1 µM): 8110 nM
- viability, T/C [3]: 99%
- viability, T/C [4]: 103%
- viability, T/C [5]: 112%
- viability, T/C [6]: 107%
- viability, T/C (second compound 0.00316 µM, first compound 3.16 µM): 110%
- viability, T/C (second compound 0.00316 µM, first compound 10 µM): 61.1%
- viability, T/C [9]: 94.8%
- viability, T/C [10]: 103%
- viability, T/C [11]: 107%
- viability, T/C [12]: 112%
- viability, T/C (second compound 0.01 µM, first compound 3.16 µM): 102%
- viability, T/C (second compound 0.01 µM, first compound 10 µM): 64.3%
- viability, T/C [15]: 98%
- viability, T/C [16]: 106%
- viability, T/C [17]: 111%
- viability, T/C [18]: 114%
- viability, T/C (second compound 0.0316 µM, first compound 3.16 µM): 112%
- viability, T/C (second compound 0.0316 µM, first compound 10 µM): 64.6%
- viability, T/C [21]: 97.8%
- viability, T/C [22]: 104%
- viability, T/C [23]: 113%
- viability, T/C [24]: 113%
- viability, T/C (second compound 0.1 µM, first compound 3.16 µM): 113%
- viability, T/C (second compound 0.1 µM, first compound 10 µM): 66.1%
- viability, T/C [27]: 102%
- viability, T/C [28]: 107%
- viability, T/C [29]: 112%
- viability, T/C [30]: 112%
- viability, T/C (second compound 0.316 µM, first compound 3.16 µM): 112%
- viability, T/C (second compound 0.316 µM, first compound 10 µM): 77.5%
- viability, T/C [33]: 103%
- viability, T/C [34]: 110%
- viability, T/C [35]: 114%
- viability, T/C [36]: 115%
- viability, T/C (second compound 1 µM, first compound 3.16 µM): 110%
- viability, T/C (second compound 1 µM, first compound 10 µM): 36.7%

Compound: O=C(c1ccc(F)c(F)c1Nc1ccc(I)cc1F)N1CC(O)([C@@H]2CCCCN2)C1 + C=CC(=O)N1CCN(c2nc(OCC3CCCN3C)nc3c(F)c(-c4nc(N)cc(C)c4C(F)(F)F)c(Cl)cc23)C(C)C1
- IC50 (second compound 0.00316 µM): > 1000 nM
- IC50 (second compound 0.01 µM): > 1000 nM
- IC50 (second compound 0.0316 µM): > 1000 nM
- IC50 (second compound 0.1 µM): > 1000 nM
- IC50 (second compound 0.316 µM): > 1000 nM
- IC50 (second compound 1 µM): > 1000 nM
- viability, T/C [1]: 101%
- viability, T/C [2]: 92.1%
- viability, T/C [3]: 85.7%
- viability, T/C [4]: 88.7%
- viability, T/C [5]: 112%
- viability, T/C [6]: 55.4%
- viability, T/C [7]: 102%
- viability, T/C [8]: 91.2%
- viability, T/C [9]: 83.5%
- viability, T/C [10]: 94.2%
- viability, T/C [11]: 112%
- viability, T/C [12]: 58.3%
- viability, T/C [13]: 96.9%
- viability, T/C [14]: 96.8%
- viability, T/C [15]: 88.6%
- viability, T/C [16]: 95.2%
- viability, T/C [17]: 112%
- viability, T/C [18]: 57.4%
- viability, T/C [19]: 99.2%
- viability, T/C [20]: 93.4%
- viability, T/C [21]: 89.1%
- viability, T/C [22]: 93.3%
- viability, T/C [23]: 113%
- viability, T/C [24]: 56.7%
- viability, T/C [25]: 97.8%
- viability, T/C [26]: 101%
- viability, T/C [27]: 84.3%
- viability, T/C [28]: 92.7%
- viability, T/C [29]: 117%
- viability, T/C [30]: 54.4%
- viability, T/C [31]: 106%
- viability, T/C [32]: 97.5%
- viability, T/C [33]: 91.3%
- viability, T/C [34]: 104%
- viability, T/C [35]: 116%
- viability, T/C [36]: 54%
